{"source": "patent US7833964B2", "about": "“Methods of reducing visceral fat by increasing levels of insulin-like growth factor-I (IGF-I)” (Tercica, Inc., priority 2003, dated 2010)", "assay_type_in_all_cases": "in vivo, human", "key": {"[1]": {"test": "ETDRS retinopathy score by fundus photography", "experimental": "Because concern existed regarding the effects of rhIGF-I on two types of ocular findings—progression of diabetic retinopathy and optic disc swelling—the occurrence of such findings was recorded as a measure of safety. An ophthalmologic visit for dilated funduscopic examination was performed during the screening period. Additionally, fundus photography was performed on each subject prior to initiation of treatment with rhIGF-I or placebo between day 7 and day 1. When optic disc swelling was detected on the initial baseline photograph, the subject was terminated from the study immediately. If the baseline photograph was scored at an Early Treatment Diabetic Retinopathy Study (ETDRS) scale of greater than 35 in either eye, the subject was also not allowed to progress further in the study.\nBoth the ophthalmologic examination and fundus photography were repeated at the completion of the treatment period or at the early termination visit in the event of premature termination. The ophthalmologic exam was performed within 3 days of the fundus photography. In the event that optic disc swelling was detected on the fundus photograph obtained at the week 12 or early termination visits, subjects were asked to return for repeat fundus photography at 1-3 months following discontinuation from the study, and again at 3-month intervals until the optic disc swelling resolved.\nFundus photographs, obtained for each subject at week 12 or at the early termination visit, were compared with the photographs obtained prior to treatment in order to evaluate the development of retinopathy during the course of the study. The photographs for each eye were graded using the final version of the ETDRS scale. The resulting scores for each eye were combined to yield the ETDRS person score. A change between day 1 and week 12 (or early termination) in the full scale ETDRS person score of three or more levels (5 units) was recorded as a progression of retinopathy and as an adverse event.\nA change in ETDRS level was the maximum difference between baseline and on-study or post-treatment values. A negative change indicated improvement."}, "[2]": {"test": "Change in BMI", "conditions": "for BMI Change (SE) Wk 14: 2 weeks after treatment stopped", "description": "The degree of obesity in humans is commonly assessed by calculating the body mass index or BMI. The BMI is essentially correcting body weight for height. Obviously a very tall person will likely weigh more than a person with short stature so this correction for height makes BMI a better gauge of the degree of obesity than uncorrected body weight. Table 6 gives the BMI data for the subjects treated with IGF-I. At baseline the subjects had average BMIs of over 30. Overweight is defined as a BMI of over 25 and obesity is defined as a BMI of over 30. […] Treatment with IGF-I reduced BMI and this effect was maintained until week 14, which was 2 weeks after treatment with IGF-I was stopped. In subjects treated with 20 micrograms of IGF-I, BMI fell by 1.0 kg/m^2 at 12 weeks and 0.9 kg/m^2 at week 14. This effect of IGF-I on BMI was highly statistically significant versus glyburide at week 12 (p=0.019) and week 14 (p=0.0064). Therefore IGF-I had the ability to reduce BMI or directly affect the most widely accepted measure of obesity. […] This greater effect of low dose IGF-I was unexpected."}, "[3]": {"test": "Change in body weight", "conditions": "for Weight Change (SE) Week 12: change from Day 1", "description": "The efficacy endpoints were the change in glucose control as assessed by the change from baseline (day 1 to week 12) in hemoglobin A1c (HbA1c) levels, and changes from baseline (day 1 to week 12) in fasting blood glucose (BG), body weight, and visceral and mid-thigh fat.\nThe primary efficacy variable for the assessment of treatment effect on glucose control at Week 12 was the change from baseline (day 1) in HbA1c levels. Secondary efficacy variables assessing glucose control at Week 12 were the change from baseline (day 1) for each of the following: fasting blood glucose concentration, weight, and visceral and mid-thigh fat.\nSecondary efficacy variables assessing glucose control at Week 12 were the change from baseline (Day 1) for each of the following: weight, and visceral and mid-thigh fat."}, "[4]": {"test": "Change in body weight", "conditions": "for Weight Change (SE) Week 14: 2 weeks after treatment stopped; for Weight Change (SE) Week 8: change from Day 1"}, "[5]": {"test_system": "hemoglobin A1c (HbA1c)", "test": "Glucose control: change from baseline in HbA1c, double-blind placebo-controlled study in type II DM", "conditions": "for Hemoglobin A1c Endpoint Change % from baseline, Mean (SD): last available measurement carried forward; for Hemoglobin A1c Change % from baseline, Week 4, Mean (SD): type II DM subjects", "experimental": "Accordingly, subjects with type II DM were treated with a combination of rhIGF-I and glyburide, or with rhIGF-I or glyburide alone, to ascertain the potential benefits of the addition of rh1GF-I to glyburide therapy on glycemic control, incidence of hypoglycemia, and weight gain. […] The use of any additional orally administered drug or insulin to treat hyperglycemia during the pretreatment and treatment periods was prohibited. […] Randomization was stratified by gender, by prior oral […] agent therapy, and by HbA1c level at day 14."}, "[6]": {"conditions": "glyburide 10 mg BID + rhIGF-I placebo (n = 29)"}, "[7]": {"conditions": "glyburide 10 mg BID + rhIGF-I placebo"}, "[8]": {"conditions": "IGF-I 20 μg/kg BID, with glyburide (n = 36) or glyburide placebo (n = 35)"}, "[9]": {"conditions": "IGF-I 40 μg/kg BID, with glyburide (n = 36) or glyburide placebo (n = 33)"}, "[10]": {"conditions": "IGF-I 20 μg/kg BID, with glyburide or glyburide placebo per label"}, "[11]": {"conditions": "IGF-I 40 μg/kg BID, with glyburide or glyburide placebo per label"}, "[12]": {"conditions": "subjects treated with 20 micrograms of IGF-I"}, "[13]": {"conditions": "low dose IGF-I (20 μg/kg BID) alone"}, "[14]": {"conditions": "rhIGF-I 20 μg/kg BID SC, with glyburide 10 mg BID or glyburide placebo per label"}, "[15]": {"conditions": "rhIGF-I 40 μg/kg BID SC, with glyburide 10 mg BID or glyburide placebo per label"}}, "note": "Values joined by “and” are separate entries in the source; they are usually repeats but may differ in a detail not shown here. Identical values can stand only once."}
{"compound": "COc1ccc(Cl)cc1C(=O)NCCc1ccc(S(=O)(=O)NC(=O)NC2CCCCC2)cc1", "note": "[Glyburide, glyburide, reference compound]", "values": [{"measurement": "subjects showing an improvement in retinal score", "setting": "[1]; Placebo/glyburide group", "result": "one"}, {"measurement": "Change in ETDRS levels: 1- to 2-step Progression", "setting": "[1]; [6]", "result": "8 (28) n (%)"}, {"measurement": "Change in ETDRS levels: No change", "setting": "[1]; [6]", "result": "19 (66) n (%)"}, {"measurement": "Change in ETDRS levels: −1- to −2-step progression (negative change = improvement)", "setting": "[1]; [6]", "result": "1 (3) n (%)"}, {"measurement": "Change in ETDRS levels: ≧3-step progression", "setting": "[1]; [6]", "result": "1 (3) n (%)"}, {"measurement": "BMI Change (SE) Wk 12", "setting": "[2]; [7]", "result": "0.0 (0.2) kg/m^2"}, {"measurement": "BMI Change (SE) Wk 14", "setting": "[2]; [7]", "result": "0.0 (0.3) kg/m^2"}, {"measurement": "BMI Change (SE) Wk 8", "setting": "[2]; glyburide 10 mg BID + rhIGF-I placebo, change from Day 1", "result": "−0.1 (0.1) kg/m^2"}, {"measurement": "Weight Change (SE) Week 12", "setting": "[3]; [7]", "result": "−0.1 (0.5) kg"}, {"measurement": "Weight Change (SE) Week 14", "setting": "[4]; [7]", "result": "0.0 (0.8) kg"}, {"measurement": "Weight Change (SE) Week 8", "setting": "[4]; [7]", "result": "−0.2 (0.4) kg"}, {"measurement": "Hemoglobin A1c Change % from baseline, Week 8, Mean (SD)", "setting": "[5]; [7]", "result": "0.05 (0.7) %"}, {"measurement": "Hemoglobin A1c Change % from baseline, Week 12, Mean (SD)", "setting": "[5]; [7]", "result": "0.32% and 0.32 (0.7) %"}, {"measurement": "Hemoglobin A1c Endpoint Change % from baseline, Mean (SD)", "setting": "[5]; [7]", "result": "0.12 (0.8) %"}, {"measurement": "Hemoglobin A1c Change % from baseline, Week 4, Mean (SD)", "setting": "[5]; [7]", "result": "−0.13 (0.5) %"}]}
{"compound": "IGF-I: recombinant human insulin-like growth factor-I from Genentech; sterile benzyl alcohol-preserved solution, 70 mg in 7 mL acetate/NaCl, pH 5.4; given SC", "values": [{"measurement": "Change in ETDRS levels: 1- to 2-step Progression", "setting": "[1]; [8]", "result": "4 (11) n (%)"}, {"measurement": "Change in ETDRS levels: No change", "setting": "[1]; [8]", "result": "24 (69) n (%)"}, {"measurement": "Change in ETDRS levels: −1- to −2-step progression (negative change = improvement)", "setting": "[1]; [8]", "result": "6 (17) n (%)"}, {"measurement": "Change in ETDRS levels: ≧3-step progression", "setting": "[1]; [8]", "result": "1 (3) n (%)"}, {"measurement": "subjects showing an improvement in retinal score", "setting": "[1]; IGF-I 20 μg/kg BID, with glyburide or placebo per label", "result": 6, "unit": "subjects"}, {"measurement": "Change in ETDRS levels: 1- to 2-step Progression", "setting": "[1]; [9]", "result": "7 (21) n (%)"}, {"measurement": "Change in ETDRS levels: No change", "setting": "[1]; [9]", "result": "20 (61) n (%)"}, {"measurement": "Change in ETDRS levels: −1- to −2-step progression (negative change = improvement)", "setting": "[1]; [9]", "result": "5 (15) n (%)"}, {"measurement": "Change in ETDRS levels: ≧3-step progression", "setting": "[1]; [9]", "result": "0 n (%)"}, {"measurement": "subjects showing an improvement in retinal score", "setting": "[1]; IGF-I 40 μg/kg BID, with glyburide or placebo per label", "result": 5, "unit": "subjects"}, {"measurement": "progression of retinopathy (increases in the ETDRS scores)", "setting": "[1]; IGF-I 20 or 40 μg/kg BID, 12 weeks, type II DM subjects", "result": "did not cause a progression of retinopathy"}, {"measurement": "BMI Change (SE) Wk 8", "setting": "[2]; [10]", "result": "−0.5 (0.2) kg/m^2"}, {"measurement": "BMI Change (SE) Wk 12", "setting": "[2]; [10]", "result": "−1.0 (0.2) kg/m^2"}, {"measurement": "BMI Change (SE) Wk 14", "setting": "[2]; [10]", "result": "−0.9 (0.2) kg/m^2"}, {"measurement": "BMI Change (SE) Wk 8", "setting": "[2]; [11]", "result": "−0.1 (0.2) kg/m^2"}, {"measurement": "BMI Change (SE) Wk 12", "setting": "[2]; [11]", "result": "−0.2 (0.2) kg/m^2"}, {"measurement": "BMI Change (SE) Wk 14", "setting": "[2]; [11]", "result": "−0.6 (0.2) kg/m^2"}, {"measurement": "BMI fell by, at 12 weeks", "setting": "[2]; [12]", "result": 1.0, "unit": "kg/m^2"}, {"measurement": "BMI fell by, at week 14", "setting": "[2]; [12]", "result": 0.9, "unit": "kg/m^2"}, {"measurement": "Weight Change (SE) Week 12", "setting": "[3]; [10]", "result": "−2.8 (0.7) kg"}, {"measurement": "Weight Change (SE) Week 12", "setting": "[3]; [11]", "result": "−0.6 (0.7) kg"}, {"measurement": "weight lost on average, Week 12", "setting": "[3]; [13]", "result": 2.8, "unit": "kg"}, {"measurement": "Weight Change (SE) Week 14", "setting": "[4]; [10]", "result": "−2.7 (0.6) kg"}, {"measurement": "Weight Change (SE) Week 8", "setting": "[4]; [10]", "result": "−1.5 (0.6) kg"}, {"measurement": "Weight Change (SE) Week 14", "setting": "[4]; [11]", "result": "−1.6 (0.5) kg"}, {"measurement": "Weight Change (SE) Week 8", "setting": "[4]; [11]", "result": "−0.2 (0.5) kg"}, {"measurement": "weight loss 2 weeks after treatment was stopped (Week 14)", "setting": "[4]; [13]", "result": 2.7, "unit": "kg"}, {"measurement": "weight lost on average, Week 8", "setting": "[4]; [13]", "result": 1.5, "unit": "kg"}, {"measurement": "Hemoglobin A1c Change % from baseline, Week 8, Mean (SD)", "setting": "[5]; [14]", "result": "−0.29 (0.8) %"}, {"measurement": "Hemoglobin A1c Change % from baseline, Week 12, Mean (SD)", "setting": "[5]; [14]", "result": "0.13 (1.2) %"}, {"measurement": "Hemoglobin A1c Change % from baseline, Week 4, Mean (SD)", "setting": "[5]; [14]", "result": "−0.10 (0.6) %"}, {"measurement": "Hemoglobin A1c Endpoint Change % from baseline, Mean (SD)", "setting": "[5]; rhIGF-I 20 μg/kg BID SC, with glyburide 10 mg BID or placebo per label", "result": "0.04 (0.9) %"}, {"measurement": "Hemoglobin A1c Change % from baseline, Week 8, Mean (SD)", "setting": "[5]; [15]", "result": "−0.47 (0.9) %"}, {"measurement": "Hemoglobin A1c Change % from baseline, Week 12, Mean (SD)", "setting": "[5]; [15]", "result": "−0.58% and −0.58 (1.2) %"}, {"measurement": "Hemoglobin A1c Change % from baseline, Week 4, Mean (SD)", "setting": "[5]; [15]", "result": "−0.37 (0.5) %"}, {"measurement": "Hemoglobin A1c Endpoint Change % from baseline, Mean (SD)", "setting": "[5]; rhIGF-I 40 μg/kg BID SC, with glyburide 10 mg BID or placebo per label", "result": "−0.30 (0.8) %"}]}
